The values below come from ChEMBL document CHEMBL1147590, “Synthesis and antitumor activity of s-tetrazine derivatives” (Bioorg Med Chem Lett, 2004).

Each structure is given as a SMILES string.

The subject of assay [1] is P388. In words: In vitro rate of inhibition of P388 tumor cell growth at 10E-4 mol/L. Type of assay: functional, Mus musculus. To be noted: at 100 µM.
Assay [2] relates to A549. The assay is described as follows: In vitro rate of inhibition of A-549 tumor cell growth at 10E-7 mol/L. The format is functional, Homo sapiens. To be noted: at 0.1 µM.
For assay [3], the system named is P388. The assay is described as follows: In vitro rate of inhibition of P388 tumor cell growth at 10E-6 mol/L. Type of assay: functional, Mus musculus. The settings on record: at 1 µM.
In assay [4] the test system is P388. In words: In vitro rate of inhibition of P388 tumor cell growth at 10E-8 mol/L. To be noted: at 0.01 µM. The format is functional, Mus musculus.
The subject of assay [5] is A549. In words: In vitro rate of inhibition of A-549 tumor cell growth at 10E-5 mol/L. Type of assay: functional, Homo sapiens. The settings on record: at 10 µM.
The subject of assay [6] is P388. The assay is described as follows: In vitro rate of inhibition of P388 tumor cell growth at 10E-5 mol/L. Type of assay: functional, Mus musculus. The settings on record: at 10 µM.
Assay [7] has as its system A549. The assay is described as follows: In vitro rate of inhibition of A-549 tumor cell growth at 10E-4 mol/L. Type of assay: functional, Homo sapiens. To be noted: at 100 µM.
In assay [8] the test system is P388. The assay is described as follows: In vitro rate of inhibition of P388 tumor cell growth at 10E-7 mol/L. The format is functional, Mus musculus. To be noted: at 0.1 µM.
Assay [9] has as its system A549. The assay is described as follows: In vitro rate of inhibition of A-549 tumor cell growth at 10E-8 mol/L. Type of assay: functional, Homo sapiens. The settings on record: at 0.01 µM.
The subject of assay [10] is A549. The assay is described as follows: In vitro rate of inhibition of A-549 tumor cell growth at 10E-6 mol/L. The format is functional, Homo sapiens. To be noted: at 1 µM.

`COC(=O)N1C(c2ccccc2)=NN=C(c2ccccc2)N1C(=O)OC`: the Rate of inhibition stood at 50.5% in the assay on P388 [1]; 0% in the assay on A549 [2]; 11.6% with P388 [3]; 3.3% in the assay on P388 [4]; 0% in the assay on A549 [5]; 14.6% in the assay on P388 [6]. Moreover, the Rate of inhibition in the assay with A549 [7] was determined as 35.5%; with P388 [8], 5.2%; in the assay on A549 [9], 0%; with A549 [10], 0%.

As to `c1ccc(C2=NNC(c3ccccc3)=NN2)cc1`, the Rate of inhibition in the assay on P388 [1] is 55.8%; with A549 [2], 0%; in the assay with P388 [3] it was 5.4%; with A549 [5], 69%; in the assay on P388 [6] it was 67.2%; in the assay on A549 [7], 87.6%. The figures for the Rate of inhibition with P388 [8] and in the assay with A549 [10] were 10.2% and 0%, respectively.

With `COC(=O)N1N=C(C)N=NC1C` (configuration not stated), the Rate of inhibition in the assay with P388 [1] is on record as 60.5%; in the assay with A549 [2], 0%; in the assay with P388 [3], 0%; in the assay on P388 [4], 5.7%; with A549 [5], 19.6%; with P388 [6], 7.8%. In addition, the Rate of inhibition in the assay with A549 [7] is given as 75.9%; in the assay with P388 [8], 11.3%; in the assay with A549 [9], 0%; with A549 [10], 0%.

Consider `CCC1NN(C(C)=O)C(CC)NN1C(C)=O` (configuration not stated), for which the Rate of inhibition is recorded as 38.9% in the assay on P388 [1]; 2.9% in the assay on A549 [2]; 0% in the assay on P388 [3]; 0% in the assay with P388 [4]; 9.7% with A549 [5]; 0% in the assay on P388 [6]. The Rate of inhibition in the assay with A549 [7] was 47.5%; in the assay on P388 [8], 0%; in the assay with A549 [9], 0%; in the assay on A549 [10], 10.1%.

For `CCCC1=NN(C(=O)OC2CCCCC2)C(CCC)N=N1` (configuration not stated), the Rate of inhibition in the assay on P388 [1] came to 44%; with A549 [2] it was 18.1%; in the assay on P388 [3] it was 38.3%; in the assay on P388 [4], 4.5%; with A549 [5], 5.2%; with P388 [6], 33.6%. Moreover, the Rate of inhibition in the assay with A549 [7] was found to be 25.8%; with P388 [8] it was 44.8%; with A549 [9], 1%; with A549 [10], 23.5%.

As for `CC1=NN(C(=O)NCc2ccccc2)C(C)=NN1C(=O)NCc1ccccc1`, the Rate of inhibition in the assay with P388 [1] is given as 92.8%; in the assay on A549 [2], 32%; in the assay on P388 [3], 50.3%; with P388 [4], 19.6%; in the assay with A549 [5] it was 82.3%; with P388 [6], 57.5%. The Rate of inhibition stood at 64.4% in the assay with A549 [7], 22% with P388 [8], 14.1% in the assay with A549 [9] and 81.8% in the assay with A549 [10].

`Cc1cccnc1-c1nnc(-c2ncccc2C)nn1`: the Rate of inhibition turned out to be 2.6% in the assay on P388 [1], 0% with A549 [5], 3.6% in the assay with P388 [6] and 0% in the assay with A549 [7].

`CCCCCOC(=O)N1N=C(C)N=NC1C` (configuration not stated): the Rate of inhibition was 42.6% with P388 [1]; 1.1% in the assay on A549 [2]; 7.3% in the assay on P388 [3]; 0% in the assay with P388 [4]; 4.6% in the assay on A549 [5]; 19.8% in the assay on P388 [6]. Further, the Rate of inhibition in the assay with A549 [7] is listed as 22.8%; in the assay with P388 [8], 0%; in the assay with A549 [9], 7.6%; in the assay with A549 [10], 0%.

On to `c1ccc(Cc2nnc(Cc3ccccc3)nn2)cc1`, for which the Rate of inhibition with P388 [1] worked out at 51%; with A549 [2] it was 0%; with P388 [3], 18.5%; in the assay with P388 [4], 0%; with A549 [5] it was 61.7%; in the assay on P388 [6], 15.6%. Besides, the Rate of inhibition in the assay with A549 [7] was found to be 66.8%; in the assay on P388 [8] it was 4.6%; in the assay with A549 [9], 0%; in the assay with A549 [10], 4.3%.

`CC1=NN(C(=O)Nc2cccc3ccccc23)C(C)=NN1C(=O)Nc1cccc2ccccc12`: the Rate of inhibition worked out at 60.5% in the assay on P388 [1]; 10% in the assay with A549 [2]; 0% in the assay on P388 [3]; 0% with P388 [4]; 16.9% with A549 [5]; 6.3% with P388 [6]. The Rate of inhibition in the assay on A549 [7] is 56.6%; with P388 [8], 0%; in the assay with A549 [9] it was 4.4%; with A549 [10] it was 9.1%.

Regarding `CC1=NN(C(=O)Nc2cc(C)cc(C)c2)C(C)=NN1C(=O)Nc1cc(C)cc(C)c1`, the Rate of inhibition was found to be 90.7% with P388 [1]; 0% in the assay on A549 [2]; 31.5% in the assay with P388 [3]; 0% in the assay with P388 [4]; 73.9% in the assay on A549 [5]; 91.7% in the assay with P388 [6]. The Rate of inhibition with A549 [7] worked out at 86.4%; in the assay with P388 [8], 0%; in the assay on A549 [9] it was 0%; in the assay on A549 [10], 37.5%.

Turning to `CCCOC(=O)N1N=C(C)N=NC1C` (configuration not stated), the Rate of inhibition in the assay on P388 [1] is 34.8%; in the assay on A549 [2], 0%; with P388 [3], 9%; in the assay on P388 [4], 5.2%; in the assay on A549 [5], 11%; in the assay with P388 [6], 13.5%. Moreover, the Rate of inhibition with A549 [7] is on record as 16.7%; with P388 [8], 8.7%; with A549 [9], 0%; in the assay on A549 [10], 0%.

Turning to `CC(C)C(=O)N1N=C(c2ccccc2)NN=C1c1ccccc1`, the Rate of inhibition was 82.5% in the assay on P388 [1]; 29.6% in the assay on A549 [2]; 52% with P388 [3]; 46.9% in the assay with P388 [4]; 46.6% in the assay with A549 [5]; 61.1% in the assay on P388 [6]. Besides, the Rate of inhibition is 83.8% in the assay on A549 [7], 24.9% with P388 [8], 29.5% in the assay on A549 [9] and 38.7% in the assay with A549 [10].

On to `CC1=NN(C(=O)NC2CCCCC2)C(C)=NN1C(=O)NC1CCCCC1`, for which the Rate of inhibition in the assay on P388 [1] turned out to be 72.6%; in the assay with A549 [2], 0%; with P388 [3] it was 0%; in the assay with P388 [4], 0%; with A549 [5], 3.5%; with P388 [6], 0%. The Rate of inhibition in the assay on A549 [7] stood at 58.9%; with P388 [8], 0%; in the assay on A549 [9], 0%; with A549 [10] it was 0%.

As for `CC1=NN(C(=O)Nc2cccc(N(C)C)c2)C(C)=NN1C(=O)Nc1cccc(N(C)C)c1`, the Rate of inhibition is 95.4% in the assay on P388 [1]; 73.9% with A549 [2]; 89.8% in the assay with P388 [3]; 90.7% with P388 [4]; 83% with A549 [5]; 84.3% in the assay with P388 [6]. The Rate of inhibition with A549 [7] came to 93.2%; in the assay on P388 [8], 88.9%; in the assay on A549 [9] it was 69.3%; in the assay with A549 [10], 80.7%.

Turning to `CC1=NN(C(=O)Nc2cccc(C(F)(F)F)c2)C(C)=NN1C(=O)Nc1cccc(C(F)(F)F)c1`, the Rate of inhibition in the assay on P388 [1] is given as 73%; with A549 [2], 10.7%; in the assay with P388 [3], 9.5%; in the assay on P388 [4], 0%; with A549 [5], 10.7%; in the assay on P388 [6], 28.6%. Besides, the Rate of inhibition in the assay on A549 [7] is 39.3%; in the assay with P388 [8], 0%; in the assay on A549 [9], 16.1%; in the assay with A549 [10] it was 8.9%.

Turning to `CC1=NN(C(=O)Nc2cccc([N+](=O)[O-])c2)C(C)=NN1C(=O)Nc1cccc([N+](=O)[O-])c1`, the Rate of inhibition with P388 [1] is listed as 69.8%; in the assay on A549 [2] it was 0%; with P388 [3] it was 38.1%; in the assay with P388 [4] it was 22.2%; in the assay on A549 [5] it was 0%; in the assay on P388 [6] it was 58.7%. Further, the Rate of inhibition worked out at 0.9% in the assay on A549 [7], 20.6% in the assay on P388 [8], 0% in the assay with A549 [9] and 0% in the assay on A549 [10].

With `CC1=NN(C(=O)OCc2ccccc2)C(C)N=N1` (configuration not stated), the Rate of inhibition with P388 [1] was determined as 24.1%; in the assay on A549 [2], 0%; with P388 [3], 2%; with P388 [4] it was 1%; in the assay on A549 [5] it was 0%; in the assay with P388 [6] it was 3%. Besides, the Rate of inhibition worked out at 0% in the assay with A549 [7], 2.3% in the assay with P388 [8], 0% with A549 [9] and 0% in the assay on A549 [10].

As to `C1=CN(c2nnc(N3C=CN=CC3)nn2)CC=N1`, the Rate of inhibition in the assay on P388 [1] is reported as 69.9%; in the assay with A549 [2], 0%; in the assay with P388 [3], 0%; with P388 [4], 0%; in the assay with A549 [5], 3.9%; in the assay on P388 [6], 0%. In addition, the Rate of inhibition with A549 [7] was found to be 60.6%; with P388 [8], 0%; in the assay with A549 [9], 0%; with A549 [10], 0%.
